Measured values reported in article PMC12865225 (Clinical and Translational Science, 2026).
Marks after values point to notes of the source that are not given here.

Legend:
P-gp = molecular target: T1, P-gp (Homo sapiens, UniProt P08183); assay: P-gp inhibition, N-methyl-quinidine transport in HEK293 membrane vesicles; assay type: biochemical; details: for Calculated R-value P-gp: R = I gut/IC50, FDA cut-off ≥ 10
T1 construct: made in house; host or cells: membrane vesicles from HEK293 cells expressing the transporter
T1 sequence (P08183 whole entry): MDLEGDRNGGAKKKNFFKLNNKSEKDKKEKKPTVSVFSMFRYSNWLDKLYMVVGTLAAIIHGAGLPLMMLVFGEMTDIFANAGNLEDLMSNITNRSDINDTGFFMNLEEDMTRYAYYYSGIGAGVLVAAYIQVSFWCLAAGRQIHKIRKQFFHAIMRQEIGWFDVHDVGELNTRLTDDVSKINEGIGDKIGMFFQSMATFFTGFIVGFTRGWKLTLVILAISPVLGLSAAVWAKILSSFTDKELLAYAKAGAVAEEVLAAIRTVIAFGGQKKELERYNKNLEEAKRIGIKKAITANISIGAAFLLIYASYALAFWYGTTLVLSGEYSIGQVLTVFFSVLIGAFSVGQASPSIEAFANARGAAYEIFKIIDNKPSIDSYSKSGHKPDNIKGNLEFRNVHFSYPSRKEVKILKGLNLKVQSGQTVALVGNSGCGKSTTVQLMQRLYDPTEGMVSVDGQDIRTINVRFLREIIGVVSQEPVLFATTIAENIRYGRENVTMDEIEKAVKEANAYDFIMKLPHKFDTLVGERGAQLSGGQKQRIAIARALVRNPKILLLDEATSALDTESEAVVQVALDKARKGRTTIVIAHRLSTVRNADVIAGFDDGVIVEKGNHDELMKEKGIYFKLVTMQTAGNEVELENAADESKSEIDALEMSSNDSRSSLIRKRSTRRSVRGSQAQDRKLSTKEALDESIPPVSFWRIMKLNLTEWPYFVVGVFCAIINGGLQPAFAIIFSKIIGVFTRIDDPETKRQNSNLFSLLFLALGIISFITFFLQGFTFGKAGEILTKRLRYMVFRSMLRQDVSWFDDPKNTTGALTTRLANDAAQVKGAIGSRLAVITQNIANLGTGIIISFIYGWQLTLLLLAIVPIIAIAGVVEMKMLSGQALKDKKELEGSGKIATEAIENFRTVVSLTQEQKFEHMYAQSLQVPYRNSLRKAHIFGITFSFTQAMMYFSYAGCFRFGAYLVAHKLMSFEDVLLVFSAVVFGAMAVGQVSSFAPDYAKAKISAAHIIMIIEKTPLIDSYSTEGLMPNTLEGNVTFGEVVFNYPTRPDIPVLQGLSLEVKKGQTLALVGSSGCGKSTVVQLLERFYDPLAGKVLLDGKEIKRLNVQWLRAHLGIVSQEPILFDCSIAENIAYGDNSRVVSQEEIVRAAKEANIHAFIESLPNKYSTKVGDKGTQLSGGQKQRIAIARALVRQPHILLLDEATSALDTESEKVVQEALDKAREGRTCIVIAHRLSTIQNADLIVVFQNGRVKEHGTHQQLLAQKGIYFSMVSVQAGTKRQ
Description: Membrane vesicles, 5 μL (7.5 μg of total protein), prepared as previously reported, were aliquoted to wells of a conical‐shaped 96‐well plate. The plate was incubated for 10 min at +37°C before the initiation of transport by adding 25 μL of TS‐buffer (10 mM Tris, 250 mM sucrose, pH adjusted to 7.4 with HEPES) containing magnesium chloride (10 mM final in the reaction), adenosine triphosphate (ATP) or adenosine monophosphate (AMP), 4 mM final in the reaction, and the transporter substrate and inhibitor. Each experiment included triplicate samples for both ATP and AMP samples. The concentrations of rosuvastatin and N‐methyl‐quinidine were 1 μM in the BCRP and P‐gp vesicle inhibition assays, respectively. The transport reaction times were 1 and 2 min for BCRP and P‐gp, respectively. […] The transport reactions were quenched by adding 200 μL of cold TS‐buffer to each well and transferring the samples to a 96‐multiwell 1.0 μm glass fiber filter plate (Merck Millipore, Darmstadt, Germany) kept under vacuum. Wells were further washed four times with cold TS‐buffer, after which the plate was dried under vacuum. The compounds were eluted from the plate by applying 100 μL of 75% methanol containing 0.1% formic acid to each well and incubating at 250 RPM for 30 min before centrifuging the samples to an analysis plate at 2800 g for 2 min. For the rosuvastatin samples, the elution solvent contained rosuvastin‐d6 as the internal standard.
For the inhibition data analysis, the average of measured concentrations in the control cells was subtracted from the average of measured concentrations in transporter‐expressing cells for each inhibitor concentration and then normalized to the vehicle sample that represents 100% transport activity. Equation (1) was fit to the inhibition data. In Equation (1), Inhibition represents the percent inhibition of transporter‐mediated uptake at an inhibitor concentration of I and IC50 is the half‐maximal inhibitory concentration. (1) Inhibition=100%−100%/1+10^logIC50−logI

OATP2B1 = molecular target: T2, OATP2B1 (Homo sapiens, UniProt O94956); assay: OATP2B1 inhibition with fluorescent substrate 4′,5′-dibromofluorescein in HEK293 cells; assay type: cell-based; details: 1 µM 4′,5′-dibromofluorescein, 5 min, 30 min preincubation
T2 construct: expressed in transfected cells; host or cells: HEK293 (recombinant baculovirus-mediated transduction)
T2 sequence (O94956 1-709): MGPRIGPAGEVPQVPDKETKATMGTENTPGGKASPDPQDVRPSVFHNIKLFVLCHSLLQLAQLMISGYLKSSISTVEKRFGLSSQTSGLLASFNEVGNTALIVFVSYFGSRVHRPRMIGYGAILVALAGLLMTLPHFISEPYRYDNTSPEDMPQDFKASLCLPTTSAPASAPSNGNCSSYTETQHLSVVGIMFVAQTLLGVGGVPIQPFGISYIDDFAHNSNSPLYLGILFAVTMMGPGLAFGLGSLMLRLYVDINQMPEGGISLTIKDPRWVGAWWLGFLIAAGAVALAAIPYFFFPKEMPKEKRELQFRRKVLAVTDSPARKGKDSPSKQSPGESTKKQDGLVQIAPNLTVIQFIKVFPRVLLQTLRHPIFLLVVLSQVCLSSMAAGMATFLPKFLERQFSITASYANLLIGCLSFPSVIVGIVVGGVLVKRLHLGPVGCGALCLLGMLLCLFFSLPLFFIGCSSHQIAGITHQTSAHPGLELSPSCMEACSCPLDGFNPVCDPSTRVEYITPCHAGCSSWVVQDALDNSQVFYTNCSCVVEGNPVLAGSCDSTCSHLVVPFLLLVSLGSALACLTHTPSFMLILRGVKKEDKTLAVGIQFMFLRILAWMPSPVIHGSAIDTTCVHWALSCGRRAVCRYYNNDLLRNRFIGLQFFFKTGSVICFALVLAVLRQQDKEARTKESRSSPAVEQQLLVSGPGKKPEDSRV
Description: 8- (2- [Fluoresceinyl]aminoethylthio)adenosine- 3', 5'- cyclic monophosphate (8-Fluo-cAMP) was acquired from Biolog Life Science Institute (Bremen, Germany), 4′,5′-dibromofluorescein was acquired from Sigma-Aldrich (St. Louis, MO, USA) and 2′,7′-dichlorofluorescein was acquired from Santa Cruz Biotechnology (Dallas, TX, USA).
Inhibition studies with fluorescent substrates in OATP transduced HEK293 cells The concentrations of fluorescent probe substrates were 1 µM 2′,7′-dichlorofluorescein for OATP1B1, 2.5 µM 8-Fluo-cAMP for OATP1B3 and 1 µM 4′,5′-dibromofluorescein for OATP2B1, and these concentrations were selected to be within or below of previously reported […]
reported linear ranges of transport for these substrate-transporter combinations.1,2,4 8-Fluo-cAMP was dissolved in ultrapure water, while dimethyl sulfoxide (DMSO) was used for all other compounds. […] For the quantification of fluorescent substrates, cells were lysed with 120 µl of lysis solution (1% Triton X-100, 5 mM EDTA, 150 mM sodium chloride and 150 mM TRIC-hydrochloride and adjusted to pH 8 with sodium hydroxide) for 30 min at 300 RPM shaking before transferring 80 µl of samples to a transparent 96-well plate containing 20 µl of 0.5 M sodium hydroxide. […] The plates were measured with a fluorescent plate reader (Varioskan LUX from ThermoFisher Scientific). […]

[1] = Static model DDI risk evaluation (FDA R values), inhibitor concentrations; design: species or system human; details: for I in,max,u maximum unbound plasma inhibitor concentration at liver inlet: 1000 mg oral dose, Fa×Fg 1, ka 0.1/min; for Igut intestinal luminal concentration: dose/250 mL
Description: To evaluate potential clinical DDIs for transporters, the FDA R values were calculated according to the FDA In Vitro Drug Interaction Studies guidance. Equation (3) was used to estimate the maximum unbound plasma inhibitor concentration at liver inlet (I in,max) for OATPs, where f u,p is the unbound fraction in plasma, C max is the maximal total concentration in plasma, F a is the fraction absorbed after oral administration, F g is the fraction available after intestinal metabolism, k a is the first‐order absorption rate constant in vivo, dose is the oral dose, Q h is the hepatic blood flow, and R B is the blood‐to‐plasma concentration ratio. (3) Iin,max,u=fu,p×Cmax+Fa×Fg×ka×Dose/Qh×RB
Hepatic blood flow (Q h) was set to 1.620 L/min [31].

Calculated R-value P-gp (P-gp)	inhibition of P-gp transport at the highest concentration (P-gp; highest concentration)	IC50 (OATP2B1)	I in,max,u maximum unbound plasma inhibitor concentration at liver inlet [1]	I max,u maximal unbound plasma concentration at steady state ([1]; C max × f u)	Igut intestinal luminal concentration [1]	IC50 (P-gp; 1 μM N-methyl-quinidine, 2 min, membrane vesicles)	reduction of P-gp activity (P-gp; highest tested concentration of 2100 μM)	Compound
33 ^b	almost completely inhibited	37.6 µM	5.51 µM	1.34 µM	8505 µM	–	–	Cc1onc(-c2c(Cl)cccc2Cl)c1C(=O)N[C@@H]1C(=O)N2[C@@H]1SC(C)(C)[C@@H]2C(=O)O [Dicloxacillin]
11 ^b	–	76.4 µM	15.7 µM	–	8813 µM	≥ 833 µM	65%	Cc1onc(-c2c(F)cccc2Cl)c1C(=O)N[C@@H]1C(=O)N2[C@@H]1SC(C)(C)[C@@H]2C(=O)O [Flucloxacillin]
